Several values for one entry are separate records, joined by “and”; a condition that tells them apart may be missing. Equal values may be shown once.
Test: xn = mol fraction of the nth substance listed

CCCc1ccccc1 + CC(CC(C)(C)C)CC(C)(C)C
viscosity [mPa·s], 102 kPa
Settings	x1 = 0.101	x1 = 0.2003	x1 = 0.3007	x1 = 0.4005	x1 = 0.498	x1 = 0.6	x1 = 0.7	x1 = 0.8001	x1 = 0.9002
293.15 K	1.24	1.16	1.09	1.03	0.983	0.939	0.905	0.877	0.861
303.15 K	1.04	0.986	0.929	0.883	0.847	0.815	0.787	0.762	0.748
313.15 K	0.901	0.852	0.809	0.773	0.744	0.712	0.689	0.666	0.654
323.15 K	0.785	0.75	0.713	0.685	0.656	0.629	0.609	0.589	0.578

CC[N+](CC)(CC)CC.Cc1ccc(S(=O)(=O)[O-])cc1 + CC(O)CO
101 kPa, x1 = 0.2
Settings	viscosity [mPa·s]
298.15 K	66.9
303.15 K	51.2
308.15 K	39.8
313.15 K	31.6
318.15 K	25.5
323.15 K	20.9

CCCc1ccccc1 + CCC(=O)O
308.15 K, 101.33 kPa
Settings	viscosity [mPa·s]
x2 = 0.0799	0.7011
x2 = 0.1548	0.7021
x2 = 0.2233	0.7031
x2 = 0.275	0.7037
x2 = 0.411	0.7084
x2 = 0.519	0.7218
x2 = 0.6192	0.7357
x2 = 0.7099	0.753
x2 = 0.7906	0.7717
x2 = 0.8664	0.8012
x2 = 0.9357	0.8334

C1CCOC1 + CCC(C)O
viscosity [mPa·s], 101 kPa
Settings	298.15 K	313.15 K
x1 = 0.0637	2.356	1.464
x1 = 0.1052	2.02	1.309
x1 = 0.1565	1.747	1.153
x1 = 0.2117	1.467	0.9942
x1 = 0.3052	1.155	0.8235
x1 = 0.4013	0.9585	0.7044
x1 = 0.4556	0.8592	0.6537
x1 = 0.4888	0.8108	0.6218
x1 = 0.5	0.8021	–
x1 = 0.6054	0.6741	0.5395
x1 = 0.7009	0.5953	0.4897
x1 = 0.8036	0.533	0.4512
x1 = 0.8596	0.5129	0.4316
x1 = 0.9151	0.4818	0.4075
x1 = 0.9497	0.4749	0.4072

CC(=O)Oc1ccccc1C(=O)O + CCC(C)O
viscosity [mPa·s], 101 kPa
Settings	x1 = 0.0007	x1 = 0.00094	x1 = 0.00118	x1 = 0.00141	x1 = 0.00165	x1 = 0.00189	x1 = 0.00236
293.15 K	3.623	3.624	3.626	3.627	3.628	3.63	3.632
298.15 K	3.014	3.015	3.015	3.016	3.017	3.018	3.02
303.15 K	2.525	2.526	2.527	2.527	2.528	2.529	2.531
308.15 K	2.12	2.121	2.122	2.123	2.123	2.124	2.125
310.15 K	1.974	1.975	1.976	1.976	1.977	1.978	1.979
313.15 K	1.792	1.793	1.794	1.795	1.796	1.797	1.798

COc1ccccc1 + CCC(C)O
viscosity [mPa·s], 101.33 kPa
Settings	x1 = 0.0999	x1 = 0.2001	x1 = 0.3001	x1 = 0.3998	x1 = 0.5	x1 = 0.6001	x1 = 0.7	x1 = 0.8002	x1 = 0.9
303.15 K	1.759	1.366	1.172	1.068	1.001	0.969	0.951	0.934	0.918
313.15 K	1.335	1.068	0.932	0.862	0.843	0.831	0.816	0.803	0.792
323.15 K	1.023	0.852	0.769	0.745	0.739	0.731	0.723	0.709	0.698

C1CCOC1 + CCCCCC
Settings	viscosity [mPa·s]
293.15 K, 101 kPa, x1 = 0.1171	0.3234
293.15 K, 101 kPa, x1 = 0.23	0.3356
293.15 K, 101 kPa, x1 = 0.3386	0.349
293.15 K, 101 kPa, x1 = 0.4434	0.36
293.15 K, 101 kPa, x1 = 0.5444	0.3797
293.15 K, 101 kPa, x1 = 0.6418	0.4007
293.15 K, 101 kPa, x1 = 0.736	0.4207
293.15 K, 101 kPa, x1 = 0.8269	0.442
293.15 K, 101 kPa, x1 = 0.9149	0.465
298 K, 101 kPa, x2 = 0.0984	0.431
298 K, 101 kPa, x2 = 0.1946	0.407
298 K, 101 kPa, x2 = 0.2979	0.387
298 K, 101 kPa, x2 = 0.3518	0.374
298 K, 101 kPa, x2 = 0.4012	0.365
298 K, 101 kPa, x2 = 0.4477	0.357
298 K, 101 kPa, x2 = 0.4775	0.352
298 K, 101 kPa, x2 = 0.5496	0.342
298 K, 101 kPa, x2 = 0.6159	0.333
298 K, 101 kPa, x2 = 0.6436	0.33
298 K, 101 kPa, x2 = 0.7063	0.323
298 K, 101 kPa, x2 = 0.7549	0.318
298 K, 101 kPa, x2 = 0.7901	0.314
298 K, 101 kPa, x2 = 0.9039	0.303
298.15 K, 101 kPa, x1 = 0.1171	0.3025
298.15 K, 101 kPa, x1 = 0.23	0.3142
298.15 K, 101 kPa, x1 = 0.3386	0.3258
298.15 K, 101 kPa, x1 = 0.4434	0.3381
298.15 K, 101 kPa, x1 = 0.5444	0.357
298.15 K, 101 kPa, x1 = 0.6418	0.3736
298.15 K, 101 kPa, x1 = 0.736	0.3943
298.15 K, 101 kPa, x1 = 0.8269	0.415
298.15 K, 101 kPa, x1 = 0.9149	0.4365
303.15 K, 101.33 kPa, x1 = 0.0971	0.285
303.15 K, 101.33 kPa, x1 = 0.1966	0.295
303.15 K, 101.33 kPa, x1 = 0.3001	0.307
303.15 K, 101.33 kPa, x1 = 0.4	0.32
303.15 K, 101.33 kPa, x1 = 0.5034	0.334
303.15 K, 101.33 kPa, x1 = 0.5974	0.349
303.15 K, 101.33 kPa, x1 = 0.7066	0.369
303.15 K, 101.33 kPa, x1 = 0.7889	0.386
303.15 K, 101.33 kPa, x1 = 0.8992	0.41

CC(C)=O + CCCCCC
298.15 K, 101 kPa
Settings	viscosity [mPa·s]
x1 = 0.1416	0.303
x1 = 0.2707	0.3137
x1 = 0.3888	0.3047
x1 = 0.4974	0.2983
x1 = 0.5975	0.3043
x1 = 0.6901	0.3039
x1 = 0.776	0.2984
x1 = 0.8559	0.3113
x1 = 0.9304	0.3144

c1ccc2ccccc2c1 + CCCCCC
viscosity
Settings	298.15 K	303.15 K	308.15 K	313.15 K	318.15 K
101 kPa, x1 = 0.09526	0.3806 mPa·s	0.3636 mPa·s	0.3455 mPa·s	0.331 mPa·s	0.3166 mPa·s
101 kPa, x1 = 0.1771	–	0.4135 mPa·s	0.3922 mPa·s	0.3737 mPa·s	0.3567 mPa·s
101.33 kPa, x1 = 0.09526	0.3806 mPa·s	0.3636 mPa·s and 0.3636 mPa·s	0.3455 mPa·s	0.331 mPa·s	0.3166 mPa·s and 0.3166 mPa·s
101.33 kPa, x1 = 0.1185	–	0.3813 mPa·s	–	–	0.3268 mPa·s
101.33 kPa, x1 = 0.1464	–	0.3926 mPa·s	–	–	0.3406 mPa·s
101.33 kPa, x1 = 0.1771	–	0.4135 mPa·s	–	–	0.3567 mPa·s
101.33 kPa, x1 = 0.18	–	0.4135 mPa·s	0.3922 mPa·s	0.3737 mPa·s	0.3567 mPa·s
101.33 kPa, x1 = 0.2165	–	–	–	–	0.3785 mPa·s

CCCCCCCCC(=O)O + CCCCCC(=O)[O-].[Na+]
100 kPa, x2 = 0.3
Settings	viscosity [mPa·s]
293.15 K	280.5
298.15 K	209
303.15 K	158.8
308.15 K	122.9
313.15 K	96.5
318.15 K	76.9
323.15 K	62.2

C1CCOC1 + CCCCCCC
viscosity [mPa·s], 101 kPa
Settings	x1 = 0.1338	x1 = 0.2578	x1 = 0.3733	x1 = 0.4809	x1 = 0.5815	x1 = 0.6758	x1 = 0.7643	x1 = 0.8475	x1 = 0.926
293.15 K	0.403	0.4075	0.413	0.4191	0.4285	0.4385	0.4495	0.4619	0.4751
298.15 K	0.3861	0.3891	0.3935	0.3984	0.4061	0.4146	0.4242	0.4356	0.4465

CC(C)=O + CCCCCCC
296 K, 101.3 kPa
Settings	viscosity [mPa·s]
x1 = 0.0795	0.385
x1 = 0.1252	0.377
x1 = 0.1699	0.37
x1 = 0.2532	0.362
x1 = 0.3008	0.358
x1 = 0.3956	0.351
x1 = 0.4536	0.347
x1 = 0.5061	0.342
x1 = 0.6193	0.333
x1 = 0.6981	0.328
x1 = 0.7504	0.321
x1 = 0.8116	0.316
x1 = 0.8666	0.314
x1 = 0.9144	0.309
x1 = 0.9678	0.311

Cc1ccccc1 + CCCCCCC
298.15 K, 101 kPa
Settings	viscosity [mPa·s]
x2 = 0.4771	0.4775
x2 = 0.4859	0.476
x2 = 0.4953	0.474
x2 = 0.4983	0.4735
x2 = 0.4996	0.473
x2 = 0.5045	0.472
x2 = 0.5106	0.471
x2 = 0.5179	0.47
x2 = 0.5212	0.469
x2 = 0.5328	0.467
x2 = 0.5408	0.4655
x2 = 0.55	0.464
x2 = 0.561	0.4615
x2 = 0.579	0.458
x2 = 0.603	0.4535

COc1ccccc1 + CCCCCCCCCCCC
viscosity [mPa·s], 101.3 kPa
Settings	x1 = 0.1618	x1 = 0.2902	x1 = 0.3869	x1 = 0.4735	x1 = 0.5603	x1 = 0.7159	x1 = 0.843	x1 = 0.9414
293.15 K	1.324	1.228	1.17	1.125	1.092	1.023	–	–
303.15 K	1.123	1.048	–	0.964	0.94	0.903	0.89	0.902
313.15 K	0.967	0.908	0.872	0.843	0.821	0.791	0.781	0.79
323.15 K	0.844	0.797	0.768	0.744	0.726	0.701	0.692	0.699

CCCCCCCCC(=O)O + CCCCCCCCCCCC(=O)O
100 kPa, x2 = 0.25
Settings	viscosity [mPa·s]
293.15 K	10.12
298.15 K	8.636
303.15 K	7.443
308.15 K	6.47
313.15 K	5.669
318.15 K	5.003
323.15 K	4.444
